According to PubChem BioAssay (NCI):
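The concentration for 50% growth inhibition is given as GI50. Definition used: TGI = concentration required for complete inhibition of growth.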

What was measured:
Test in all cases: NCI-60 cell line screen, 384-well format
NCI-H226 lung = tested on: NCI-H226 lung
TK-10 renal = tested on: TK-10 renal
NCI/ADR-RES ovarian = tested on: NCI/ADR-RES ovarian
NCI-H522 lung = tested on: NCI-H522 lung
SK-MEL-5 melanoma = tested on: SK-MEL-5 melanoma
OVCAR-3 ovarian = tested on: OVCAR-3 ovarian
NCI-H322M lung = tested on: NCI-H322M lung
EKVX NSCLC = tested on: EKVX NSCLC
UO-31 renal = tested on: UO-31 renal
A498 renal = tested on: A498 renal
CCRF-CEM leukemia = tested on: CCRF-CEM leukemia
OVCAR-4 ovarian = tested on: OVCAR-4 ovarian
SR leukemia = tested on: SR leukemia
RXF 393 renal = tested on: RXF 393 renal
ACHN renal = tested on: ACHN renal
DU-145 prostate = tested on: DU-145 prostate
MOLT-4 leukemia = tested on: MOLT-4 leukemia
UACC-62 melanoma = tested on: UACC-62 melanoma
COLO 205 colon = tested on: COLO 205 colon
NCI-H23 lung = tested on: NCI-H23 lung
HCT-116 colon = tested on: HCT-116 colon
HOP-92 NSCLC = tested on: HOP-92 NSCLC
KM12 colon = tested on: KM12 colon
MDA-MB-435 melanoma = tested on: MDA-MB-435 melanoma
U251 glioblastoma = tested on: U251 glioblastoma
M14 melanoma = tested on: M14 melanoma
NCI-H460 NSCLC = tested on: NCI-H460 NSCLC
SW-620 colon = tested on: SW-620 colon
SN12C renal = tested on: SN12C renal
K-562 leukemia = tested on: K-562 leukemia
T-47D breast = tested on: T-47D breast
PC-3 prostate = tested on: PC-3 prostate
HS 578T breast = tested on: HS 578T breast
MDA-MB-231 breast = tested on: MDA-MB-231 breast
SK-OV-3 ovarian = tested on: SK-OV-3 ovarian
RPMI-8226 leukemia = tested on: RPMI-8226 leukemia
A549 NSCLC = tested on: A549 NSCLC
HT29 colon = tested on: HT29 colon
MDA-MB-468 breast = tested on: MDA-MB-468 breast
OVCAR-5 ovarian = tested on: OVCAR-5 ovarian
IGROV1 ovarian = tested on: IGROV1 ovarian
HL-60(TB) leukemia = tested on: HL-60(TB) leukemia
MALME-3M melanoma = tested on: MALME-3M melanoma
HCC-2998 colon = tested on: HCC-2998 colon
SK-MEL-28 melanoma = tested on: SK-MEL-28 melanoma
HCT-15 colon = tested on: HCT-15 colon
786-0 renal = tested on: 786-0 renal
UACC-257 melanoma = tested on: UACC-257 melanoma
SK-MEL-2 melanoma = tested on: SK-MEL-2 melanoma
MCF7 breast = tested on: MCF7 breast
BT-549 breast = tested on: BT-549 breast
HOP-62 NSCLC = tested on: HOP-62 NSCLC
OVCAR-8 ovarian = tested on: OVCAR-8 ovarian
CAKI-1 renal = tested on: CAKI-1 renal
LOX IMVI melanoma = tested on: LOX IMVI melanoma

CO[C@@]12[C@H](COC(N)=O)C3=C(C(=O)C(C)=C(N)C3=O)N1C[C@@H]1N[C@@H]12
GI50 (NCI-H226 lung): 0.553 µM | TGI (NCI-H226 lung): 3.25 µM | GI50 (TK-10 renal): 1.72 µM | TGI (TK-10 renal): 13.1 µM | GI50 (NCI/ADR-RES ovarian): 5.8 µM | TGI (NCI/ADR-RES ovarian): > 43 µM | GI50 (NCI-H522 lung): 0.276 µM | TGI (NCI-H522 lung): 1.37 µM | GI50 (SK-MEL-5 melanoma): 0.0405 µM | TGI (SK-MEL-5 melanoma): 0.102 µM | GI50 (OVCAR-3 ovarian): 1.32 µM | TGI (OVCAR-3 ovarian): 3.77 µM | GI50 (NCI-H322M lung): 0.401 µM | TGI (NCI-H322M lung): 1.45 µM | GI50 (EKVX NSCLC): 4.52 µM | TGI (EKVX NSCLC): 11.5 µM | GI50 (UO-31 renal): 1.13 µM | TGI (UO-31 renal): 4.71 µM | GI50 (A498 renal): 0.179 µM | TGI (A498 renal): 0.932 µM | GI50 (CCRF-CEM leukemia): 0.108 µM | TGI (CCRF-CEM leukemia): 0.257 µM | GI50 (OVCAR-4 ovarian): 2.27 µM | TGI (OVCAR-4 ovarian): 5.23 µM | GI50 (SR leukemia): 0.0135 µM | TGI (SR leukemia): 0.0281 µM | GI50 (RXF 393 renal): 1.6 µM | TGI (RXF 393 renal): 3.19 µM | GI50 (ACHN renal): 0.169 µM | TGI (ACHN renal): 0.844 µM | GI50 (DU-145 prostate): 0.0447 µM | TGI (DU-145 prostate): 0.208 µM | GI50 (MOLT-4 leukemia): 0.0168 µM | TGI (MOLT-4 leukemia): 0.0311 µM | GI50 (UACC-62 melanoma): 0.1 µM | TGI (UACC-62 melanoma): 1.15 µM | GI50 (COLO 205 colon): 0.25 µM | TGI (COLO 205 colon): 1.89 µM | GI50 (NCI-H23 lung): 0.046 µM | TGI (NCI-H23 lung): 0.162 µM | GI50 (HCT-116 colon): 0.0823 µM | TGI (HCT-116 colon): 1.36 µM | GI50 (HOP-92 NSCLC): 1.85 µM | TGI (HOP-92 NSCLC): 6.78 µM | GI50 (KM12 colon): 0.582 µM | TGI (KM12 colon): 3.6 µM | GI50 (MDA-MB-435 melanoma): 1.71 µM | TGI (MDA-MB-435 melanoma): 8.72 µM | GI50 (U251 glioblastoma): 0.111 µM | TGI (U251 glioblastoma): 1.5 µM | GI50 (M14 melanoma): 0.0974 µM | TGI (M14 melanoma): 1.19 µM | TGI (NCI-H460 NSCLC): 0.11 µM | GI50 (SW-620 colon): 0.145 µM | TGI (SW-620 colon): 1.85 µM | GI50 (SN12C renal): 0.0989 µM | TGI (SN12C renal): 3.16 µM | GI50 (K-562 leukemia): 0.914 µM | TGI (K-562 leukemia): 2.83 µM | GI50 (T-47D breast): 1.6 µM | TGI (T-47D breast): 11.2 µM | GI50 (PC-3 prostate): 2.34 µM | TGI (PC-3 prostate): 9.94 µM | GI50 (HS 578T breast): 3.26 µM | TGI (HS 578T breast): 7.5 µM | GI50 (MDA-MB-231 breast): 4.01 µM | TGI (MDA-MB-231 breast): 10.7 µM | GI50 (SK-OV-3 ovarian): 0.137 µM | TGI (SK-OV-3 ovarian): 0.77 µM | GI50 (RPMI-8226 leukemia): 0.161 µM | TGI (RPMI-8226 leukemia): 0.675 µM | GI50 (A549 NSCLC): 0.0929 µM | TGI (A549 NSCLC): 1.06 µM | GI50 (HT29 colon): 0.368 µM | TGI (HT29 colon): 2.25 µM | GI50 (MDA-MB-468 breast): 0.0718 µM | TGI (MDA-MB-468 breast): 0.212 µM | GI50 (OVCAR-5 ovarian): 1.12 µM | TGI (OVCAR-5 ovarian): 4.35 µM | GI50 (IGROV1 ovarian): 1.03 µM | TGI (IGROV1 ovarian): 2.63 µM | GI50 (HL-60(TB) leukemia): 0.0178 µM | TGI (HL-60(TB) leukemia): 0.041 µM | GI50 (MALME-3M melanoma): 0.576 µM | TGI (MALME-3M melanoma): 1.96 µM | GI50 (HCC-2998 colon): 0.236 µM | TGI (HCC-2998 colon): 1.38 µM | GI50 (SK-MEL-28 melanoma): 1.24 µM | TGI (SK-MEL-28 melanoma): 5.21 µM | GI50 (HCT-15 colon): 0.328 µM | TGI (HCT-15 colon): 2.17 µM | GI50 ([…]-0 renal): 0.261 µM | TGI (786-0 renal): 3.69 µM | GI50 (UACC-257 melanoma): 0.914 µM | TGI (UACC-257 melanoma): 2.95 µM | GI50 (SK-MEL-2 melanoma): 1.25 µM | TGI (SK-MEL-2 melanoma): 2.68 µM | GI50 (MCF7 breast): 0.0947 µM | TGI (MCF7 breast): 2.87 µM | GI50 (BT-549 breast): 0.258 µM | TGI (BT-549 breast): 1.89 µM | GI50 (HOP-62 NSCLC): 0.0387 µM | TGI (HOP-62 NSCLC): 0.213 µM | GI50 (OVCAR-8 ovarian): 0.439 µM | TGI (OVCAR-8 ovarian): 4.6 µM | GI50 (CAKI-1 renal): 0.226 µM | TGI (CAKI-1 renal): 1.64 µM | GI50 (LOX IMVI melanoma): 0.159 µM | TGI (LOX IMVI melanoma): 1.3 µM
